The test system of series [1] is 2009 pandemic influenza A(H1N1) virus and avian influenza virus A(H7N9). The settings on record: cited from earlier work.
Series [2] deals with influenza vaccine. The following applies: older adults, cited from earlier work.
Series [3] deals with influenza vaccine. The following applies: young adults; topical imiquimod vs sham aqueous cream; cited from earlier work.
Series [4] deals with split-virion seasonal influenza vaccine. Kind of series: Antibody titers after influenza vaccination with or without intraperitoneal miltefosine (FIG. 1). In kind it is in vivo, mice. The text has this: FIG. 1: FIG. 1 depicts antibody titers measured 14 days after vaccination with or without miltefosine. A second dose of vaccine was provided on day 14. Circles indicate data from the miltefosine+vaccine treatment group; squares indicate data from the vaccine only treatment group; triangles indicate data from the miltefosine only treatment group; inverted triangles indicate data from a saline-treated control group.
Miltefosine is an FDA-approved anti-parasitic drug that is used in the treatment of Leishmaniasis. The immunomodulating effects of miltefosine include being an agonist of TLR4 and TLR9 (Das S, Rani M, Pandey K, Sahoo G C, Rabidas V N, Singh D, et al. Combination of paromomycin and miltefosine promotes TLR4-dependent induction of antileishmanial immune response in vitro. J Antimicrob Chemother 2012; 67:2373-8; Mukherjee A K, Gupta G, Adhikari A, Majumder S, Kar Mahapatra S, Bhattacharyya Majumdar S, et al. Miltefosine triggers a strong proinflammatory cytokine response during visceral leishmaniasis: role of TLR4 and TLR9. Int Immunopharmacol 2012; 12:565-72), enhancing IFN-γ receptor (Wadhone P, Maiti M, Agarwal R, Kamat V, Martin S, Saha B. Miltefosine promotes IFN-gamma-dominated anti-leishmanial immune response. J Immunol 2009; 182:7146-54), promoting IL12-dependent TH1 response (Wadhone P, Maiti M, Agarwal R, Kamat V, Martin S, Saha B. Miltefosine promotes IFN-gamma-dominated anti-leishmanial immune response. J Immunol 2009; 182:7146-54), and inhibiting PI3K-Akt pathway (Lucas A, Kim Y, Rivera-Pabon O, Chae S, Kim D H, Kim B. Targeting the PI3K/Akt cell survival pathway to induce cell death of HIV-1 infected macrophages with alkylphospholipid compounds. PLoS One 2010; 5). Topical formulation of miltefosine has been evaluated in the treatment of breast carcinoma (Clive S, Gardiner J, Leonard R C. Miltefosine as a topical treatment for cutaneous metastases in breast carcinoma. Cancer Chemother Pharmacol 1999; 44 Suppl:S29-30). […] It was also noted that both IgG1 and IgG2a responses were enhanced by the use of miltefosine in combination with intradermal vaccination.

Series [5] has as its system influenza infection. Put plainly: Survival of mice infected 3 or 7 days after a single influenza vaccination with or without miltefosine (FIGS. 2A, 2B). In kind it is in vivo. The settings on record: intraperitoneal miltefosine adjuvant + vaccine vs vaccine without adjuvant; infected 3 or 7 days after vaccination. Here is the method:
FIGS. 2A and 2B: FIG. 2A depicts survival rates of infected mice that were vaccinated with or without miltefosine 3 days prior to infection. Data from treatment with 0.2 mg miltefosine+vaccine is represented by a combination a circle and a solid line. Data from treatment with 0.008 mg miltefosine+vaccine is represented by a combination of a rhombus and a dashed line. Data from treatment with 0.2 mg miltefosine only is represented by a dash/dot line. Data from treatment with vaccine only is represented by a combination of a square and a solid line. Data from treatment with a saline control is represented by a dotted line. FIG. 2B depicts survival rates of infected mice that were vaccinated with (circle/dashed line, rhombus/dashed line, or black) or without (square/solid line) miltefosine 7 days prior to infection. Data from treatment with 1 mg miltefosine+vaccine is represented by a combination a triangle and a solid line. Data from treatment with 0.2 mg miltefosine+vaccine is represented by a combination a circle and a solid line. Data from treatment with 0.008 mg miltefosine+vaccine is represented by a combination of a rhombus and a dashed line. Data from treatment with 0.2 mg miltefosine only is represented by a dash/dot line. Data from treatment with vaccine only is represented by a combination of a square and a solid line. […]

For series [6], the system named is influenza infection. Put plainly: Post-infection antibody, hemagglutination and microneutralization titers of mice vaccinated with or without miltefosine (FIG. 3). Type of series: in vivo. The following applies: intraperitoneal miltefosine + vaccine vs vaccine only. The text has this:
Circles indicate data from the miltefosine+vaccine treatment group; squares indicate data from the vaccine only treatment group; triangles indicate data from the miltefosine only treatment group; inverted triangles indicate data from a saline-treated control group.
In FIG. 3 circles indicate data from the miltefosine+vaccine treatment group, squares indicate data from the vaccine only treatment group, triangles indicate data from the miltefosine only treatment group, and inverted triangles indicate data from a saline-treated control group.

Setting [7] is: miltefosine + vaccine vs vaccine only, 14 days after vaccination.

The structures appear in SMILES notation.

With `CCCCC/C=C\C/C=C\C/C=C\C/C=C\CCCC(=O)N[C@H](C)CO` [(R)-methanandamide], the CC50 in the series “in vitro” was > 60 µM.

In the case of `CC(C)Cn1cnc2c(N)nc3ccccc3c21` [imiquimod], the “Death during lethal challenge” value in series [1] (2009 pandemic A(H1N1) and A(H7N9) lethal challenge) is recorded as “reduction”. Besides, in series [1] (mouse model), the “Immunogenicity of the influenza vaccine” value was “accelerate and augment”. Moreover, the Antibody response entry with influenza vaccine [2] (topical imiquimod vs sham aqueous cream before intradermal vaccine) is “more rapid and robust”. Besides, the “Rate of hospitalization and pneumonia” value in the series on influenza vaccine [2] (topical imiquimod vs sham aqueous cream) was “significantly lower”. Also, the “Antibody responses for homologous virus” value with influenza vaccine [3] is “faster and more robust”.

As to `CCCCCCCCCCCCCCCCOP(=O)([O-])OCC[N+](C)(C)C` [miltefosine], in series [4] (setting [7]), the Hemagglutination titer entry is reported as “improved” and the Microneutralization titer entry is listed as “improved”. Moreover, in series [4] (miltefosine in combination with influenza vaccination vs vaccine only, two weeks post-immunization), the IgG titer result is recorded as “significantly increased”. In addition, in series [4] (miltefosine in combination with vaccination), the “IgG1 and IgG2a responses” value was “enhanced”. For the same compound, the Survival result in the series with influenza infection [5] is recorded as “significantly improved”. In addition, the IgG1/IgG2 ratio result with influenza infection [6] is listed as “greater”. Besides, in the series on influenza infection [6] (4 days post-infection), the HAI titer entry was “significantly higher” and the MN titer entry is “significantly higher”.

(Values after patent publication US12144856B2 (priority 2019, dated 2024).)
